For one series, the system named is MCF-7/ADR cells. The series can be described thus: MTT cytotoxicity of taxol with P-gp inhibitors at 10% or 50% FCS in MCF-7/ADR cells. As to conditions: for Resistance of MCF-7/ADR cells: MA Russell and DR Ferry, unpublished data; for EC50: Homo sapiens, NCI/ADR-RES. It is filed as cell-based, human.
Series [1] concerns MES-Dx5 cells. In words: Reversal of MES-Dx5 resistance to cytotoxics by P-gp inhibitor (MTT assay, % maximal shift). The series is classed as cell-based, human. The settings on record: for EC50: Homo sapiens, MES-Dx5, MTT 72 h.
For series [2], the system named is MES-Dx5 cells. The series can be described thus: MTT dye-based cytotoxicity assay, 72-h exposure, P-gp-expressing MES-Dx5 cells. As to conditions: for EC50: Homo sapiens, read-out: EC50 of cytotoxic drug in MES-Dx5 cells; for EC50 / Resistance factor (RF) of MES-Dx5 relative to MES-SA cells: MTT. The series is classed as cell-based, human.
The test system of series [3] is P-gp. Further details: method as in Hyafil et al, 1993. The settings on record: ref Hyafil et al, 1993; cited from earlier work.
For a further series, the system named is COR-L23 R. The series can be described thus: Sensitization of MRP1-expressing COR-L23 R cells to doxorubicin. It is filed as cell-based. The settings on record: 1 M (µM) GF120918, unpublished data.
The subject of series [4] is P388/Dox leukaemia or C26 colon carcinoma. Further details: method as in Hyafil et al, 1993. The settings on record: single dose of GF120918; ref Hyafil et al, 1993; cited from earlier work.
Series [5] deals with MES-SA cells. In words: Radiolabelled drug accumulation assay in MES-SA cells. The series is classed as cell-based, human. As to conditions: data not shown.
Series [6] concerns MES-Dx5 cells. In words: Radiolabelled drug accumulation assay in MES-Dx5 cells. The series is classed as cell-based, human. As to conditions: for EC50: Homo sapiens, MES-Dx5, 4 h; for Accumulation deficit of MES-Dx5 relative to parental MES-SA cells: steady state.
In series [7] the test system is P-gp. The description is as above. The series is classed as cell-based, human. The settings on record: human, MES-Dx5 cells (P-gp-expressing); read-out: EC50 for reversal of the accumulation deficit, range over all three radiolabelled cytotoxics.
Series [8] has as its target T1, P-gp in MES-Dx5 membranes (Homo sapiens, UniProt P08183).
Series [9] has as its target P-gp (Homo sapiens, UniProt P08183). The series can be described thus: in vitro. The settings on record: membrane preparations of MES-Dx5 cells (P-gp-expressing), MES-Dx5 membranes.
For series [10], the target named is T1, P-gp in MES-Dx5 membranes. In words: biochemical.
The test system of series [11] is MES-SA cells. In words: MTT dye-based cytotoxicity assay, 72-h exposure, parental MES-SA cells. The settings on record: Homo sapiens, read-out: EC50 of cytotoxic drug in MES-SA cells. (Tetrazolium dyes change colour on reduction, which living cells bring about.)
Series [12] relates to MCF-7 WT cells.
Series [13] concerns MCF-7 WT cells. The series can be described thus: cells. The settings on record: Homo sapiens, MCF7, 72 h.
The mark [14] stands for this setting: inhibition of [3H]-vinblastine binding, single representative experiment, Figure 7B, 5 nM [3H]-vinblastine.

Results on twelve molecules are retold here after paper PMC2362940 (British Journal of Cancer, 1999).

“Also recorded” adds a separate entry of the source. Where two headings read alike, the source gives them in different places.

The Kd is the constant that tells how readily two partners part at equilibrium. By Ki is commonly meant a dissociation constant, usually derived from enzyme kinetics or from competition with a known ligand. Low readings indicate higher affinity, high ones lower affinity.

T1 sequence (P08183 whole entry): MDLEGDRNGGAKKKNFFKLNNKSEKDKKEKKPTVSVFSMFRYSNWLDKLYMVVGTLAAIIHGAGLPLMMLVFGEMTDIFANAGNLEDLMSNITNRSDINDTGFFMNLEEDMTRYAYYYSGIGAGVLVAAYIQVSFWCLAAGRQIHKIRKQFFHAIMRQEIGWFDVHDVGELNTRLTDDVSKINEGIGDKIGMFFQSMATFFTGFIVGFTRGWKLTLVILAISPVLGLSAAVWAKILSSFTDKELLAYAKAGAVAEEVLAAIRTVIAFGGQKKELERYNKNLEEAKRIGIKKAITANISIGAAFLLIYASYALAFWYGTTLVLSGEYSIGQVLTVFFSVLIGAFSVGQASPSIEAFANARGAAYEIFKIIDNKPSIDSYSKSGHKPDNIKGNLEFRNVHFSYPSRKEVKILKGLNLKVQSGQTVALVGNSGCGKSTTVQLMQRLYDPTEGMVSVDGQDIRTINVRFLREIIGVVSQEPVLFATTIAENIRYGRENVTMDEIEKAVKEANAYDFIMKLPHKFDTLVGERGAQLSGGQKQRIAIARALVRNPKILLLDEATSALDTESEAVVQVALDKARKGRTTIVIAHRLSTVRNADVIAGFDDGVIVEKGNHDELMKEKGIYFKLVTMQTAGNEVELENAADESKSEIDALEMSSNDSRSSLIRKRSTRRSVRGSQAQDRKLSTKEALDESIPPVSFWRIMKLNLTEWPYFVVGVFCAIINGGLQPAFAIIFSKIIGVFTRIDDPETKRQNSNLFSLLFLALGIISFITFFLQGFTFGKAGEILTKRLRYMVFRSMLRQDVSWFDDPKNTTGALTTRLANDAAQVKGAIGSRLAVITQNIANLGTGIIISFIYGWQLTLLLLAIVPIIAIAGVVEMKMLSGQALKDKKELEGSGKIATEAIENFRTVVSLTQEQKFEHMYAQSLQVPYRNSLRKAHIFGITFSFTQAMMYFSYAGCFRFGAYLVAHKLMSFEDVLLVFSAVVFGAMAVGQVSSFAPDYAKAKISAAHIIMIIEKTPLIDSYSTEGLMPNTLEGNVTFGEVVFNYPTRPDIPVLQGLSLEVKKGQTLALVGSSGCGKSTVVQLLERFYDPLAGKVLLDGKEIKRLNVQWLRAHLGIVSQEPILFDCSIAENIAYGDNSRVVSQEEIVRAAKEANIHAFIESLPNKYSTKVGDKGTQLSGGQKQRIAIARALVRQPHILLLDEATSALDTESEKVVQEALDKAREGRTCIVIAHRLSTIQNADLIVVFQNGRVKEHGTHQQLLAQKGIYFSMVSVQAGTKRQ
Sequence of P-gp (P08183 whole entry): as above

On to `CO[C@@H]1[C@H](N(C)C(=O)c2ccccc2)C[C@H]2O[C@]1(C)n1c3ccccc3c3c4c(c5c6ccccc6n2c5c31)C(=O)NC4` [CGP 41251], for which the “Ratio of EC50s (50% FCS vs 10% FCS) in presence of P-gp inhibitor” value with MCF-7/ADR cells (MCF-7/ADR, taxol, MTT 72 h) was 30 fold.

As to `COC(=O)C1=C(C)NC(C)=C(C(=O)OCCCN2CCC(c3ccccc3)(c3ccccc3)CC2)[C@@H]1c1cccc([N+](=O)[O-])c1` [Dexniguldipine], the “Ratio of EC50s (50% FCS vs 10% FCS) in presence of P-gp inhibitor” value in the series on MCF-7/ADR cells is 37 fold.

For the molecule `COc1cc2c(cc1OC)CN(CCc1ccc(NC(=O)c3cccc4c(=O)c5cccc(OC)c5[nH]c34)cc1)CC2` [GF120918], the EC50 in the series with MES-Dx5 cells [1] (read-out: EC50 of GF120918 to reverse resistance (shifts sensitivity by 50%) to doxorubicin, cytotoxic doxorubicin) stood at 0.021 ± 0.006 µM; in the series on MES-Dx5 cells [1] (read-out: EC50 of GF120918 to reverse resistance (shifts sensitivity by 50%) to etoposide, cytotoxic etoposide), 0.007 ± 0.002 µM; in the series on MES-Dx5 cells [1] (read-out: EC50 of GF120918 to reverse resistance (shifts sensitivity by 50%) to taxol, cytotoxic taxol), 0.091 ± 0.023 µM; in the series with MES-Dx5 cells [1] (read-out: EC50 of GF120918 to reverse resistance (shifts sensitivity by 50%) to taxotere, cytotoxic taxotere) it was 0.057 ± 0.014 µM; in the series with MES-Dx5 cells [1] (read-out: EC50 of GF120918 to reverse resistance (shifts sensitivity by 50%) to vinblastine, cytotoxic vinblastine), 0.019 ± 0.003 µM; in the series on MES-Dx5 cells [6] (read-out: [GF120918] reverses accumulation-deficit by 50%, [3H]-taxol) it was […]. Moreover, the EC50 in the series on MES-Dx5 cells [6] (read-out: [GF120918] reverses accumulation-deficit by 50%, [3H]-vinblastine) is 0.048 µM; in the series with MES-Dx5 cells [6] (read-out: [GF120918] reverses accumulation-deficit by 50%, [14C]-doxorubicin), […]; in the series on P-gp [7], […]. Besides, the “Lowest concentration exhibiting a measurable reversal of resistance” value in the series on MES-Dx5 cells [1] (MES-Dx5, MTT assay) worked out at […]. Besides, in the series with MES-Dx5 cells [1] (to level of parental MES-SA cells), the “Extent of reversal of MES-Dx5 resistance, all tested cytotoxic drugs” value is “reversed resistance completely; also recorded: fully reverse resistance”. Besides, the “Cytotoxic effect of GF120918 alone” value in the series with MES-Dx5 cells [2] (MTT assay) is on record as “did not produce a cytotoxic effect”. Also, in the series on P-gp [3], the “Concentration at which activity was consistently achieved in vitro” value is listed as […]. Besides, the “Sensitization of COR-L23 R (MRP1, not P-gp) to doxorubicin” value with COR-L23 R was “not sensitized”. In addition, the “Sensitization of xenograft-bearing mice to doxorubicin” value in [4] is given as “sensitized mice”. For the same molecule, the “Effect on cellular content of radiolabelled cytotoxics in sensitive MES-SA cells” value with MES-SA cells [5] was “did not increase”.

For the molecule `C/C=C/C[C@@H](C)C(=O)[C@H]1C(=O)N[C@@H](C(C)C)C(=O)N(C)CC(=O)N(C)[C@@H](CC(C)C)C(=O)N[C@@H](C(C)C)C(=O)N(C)[C@@H](CC(C)C)C(=O)N[C@@H](C)C(=O)N[C@H](C)C(=O)N(C)[C@@H](CC(C)C)C(=O)N(C)[C@@H](CC(C)C)C(=O)N(C)[C@@H](C(C)C)C(=O)N1C` [PSC 833], in the series on MCF-7/ADR cells (MCF-7/ADR, taxol, MTT 72 h), the “Ratio of EC50s (50% FCS vs 10% FCS) in presence of P-gp inhibitor” value stood at 19 fold.

With `CC(=O)O[C@H]1C(=O)[C@@]2(C)[C@H]([C@H](OC(=O)c3ccccc3)[C@]3(O)C[C@H](OC(=O)[C@H](O)[C@@H](NC(=O)c4ccccc4)c4ccccc4)C(C)=C1C3(C)C)[C@]1(OC(C)=O)CO[C@@H]1C[C@@H]2O` [[3 H]-taxol], the “Accumulation deficit of MES-Dx5 relative to parental MES-SA cells” value with MES-Dx5 cells [6] amounted to 20%.

`CC[C@]1(O)C[C@@H]2CN(CCc3c([nH]c4ccccc34)[C@@](C(=O)OC)(c3cc4c(cc3OC)N(C)[C@H]3[C@@](O)(C(=O)OC)[C@H](OC(C)=O)[C@]5(CC)C=CCN6CC[C@]43[C@@H]65)C2)C1` [[3 H]-vinblastine]: in [8] (Figure 6, 1 mM ATP and 3 mM MgCl2, single experiment), the “Bmax of [3H]-vinblastine binding in the presence of ATP and MgCl2” value is 10.9 pmol mg-1 protein. In addition, in series [8] (Figure 6, control without ATP/MgCl2), the “Bmax of [3H]-vinblastine binding, single representative experiment” value is on record as 8.6 pmol mg-1 protein. Also, the “Bmax of [3H]-vinblastine binding (mean)” value in series [8] (MES-Dx5 membranes) came out at 5.2 pmol mg-1 protein; in [8] (MES-Dx5 membranes, listed as [^3H]-vinblastine), 5.2 ± 1.6 pmol mg-1 protein. In addition, at P-gp [9] (KD of [3H]-vinblastine binding, saturation analysis (mean)), binding was put at a Kd of 0.0078 ± 0.0014 µM.

`COc1cccc2c1C(=O)c1c(O)c3c(c(O)c1C2=O)C[C@@](O)(C(=O)CO)C[C@@H]3O[C@H]1C[C@H](N)[C@H](O)[C@H](C)O1` [[14 C]-doxorubicin]: the “Accumulation deficit of MES-Dx5 relative to parental MES-SA cells” value in the series on MES-Dx5 cells [6] was 20%.

Consider `COc1cccc2c1C(=O)c1c(O)c3c(c(O)c1C2=O)C[C@@](O)(C(=O)CO)C[C@@H]3O[C@H]1C[C@H](N)[C@H](O)[C@H](C)O1` [doxorubicin], for which the “Resistance of MCF-7/ADR cells” value in the series on MCF-7/ADR cells is listed as 200 fold. Further, the EC50 with MES-Dx5 cells [2] amounted to 0.534 µM; in the series with MES-SA cells [11], 0.058 µM. Further, the inhibition constant Ki was found to be 6.94 ± 2.1 µM in [10] (inhibition of [3H]-vinblastine binding to P-gp (mean), MES-Dx5 membranes, 21C) and 112 µM in series [10] (setting [14]).

Consider `COc1cc([C@@H]2c3cc4c(cc3[C@@H](O[C@@H]3O[C@@H]5CO[C@@H](C)O[C@H]5[C@H](O)[C@H]3O)[C@H]3COC(=O)[C@H]23)OCO4)cc(OC)c1O` [etoposide], for which the EC50 amounted to 6.85 µM in the series on MES-Dx5 cells [2] and 3 µM in the series with MES-SA cells [11].

With `CC(=O)O[C@H]1C(=O)[C@@]2(C)[C@H]([C@H](OC(=O)c3ccccc3)[C@]3(O)C[C@H](OC(=O)[C@H](O)[C@@H](NC(=O)c4ccccc4)c4ccccc4)C(C)=C1C3(C)C)[C@]1(OC(C)=O)CO[C@@H]1C[C@@H]2O` [taxol], the EC50 in the series on MCF-7/ADR cells (read-out: EC50 of taxol without inhibitor, 10% FCS, MCF-7/ADR, MTT 72 h) was found to be 8.5 µM; with MCF-7/ADR cells (read-out: EC50 of taxol without inhibitor, 50% FCS, MCF-7/ADR, MTT 72 h), 4.6 µM; in the series on MES-Dx5 cells [2], 0.47 µM; with MCF-7 WT cells [13] (read-out: EC50 of taxol without inhibitor, 10% FCS), 0.006 µM; in the series with MCF-7 WT cells [13] (read-out: EC50 of taxol without inhibitor, 50% FCS) it was 0.005 µM; with MES-SA cells [11] it was 0.005 µM. Also, in the series with MCF-7/ADR cells, the “Resistance of MCF-7/ADR cells” value worked out at 1000 fold. Further, the “Resistance factor (RF) of MES-Dx5 relative to MES-SA cells” value in the series with MES-Dx5 cells [2] was found to be 94 fold. Further, in the series with MCF-7 WT cells [12], the “Ratio of EC50s (50% FCS vs 10% FCS), taxol without inhibitor” value was found to be 0.84. In series [10] (setting [14]), this molecule gave an inhibition constant (Ki) of 0.096 µM. Moreover, the “Maximal displacement of [3H]-vinblastine bound to P-gp” value in series [8] (MES-Dx5 membranes, allosteric inhibitor) amounted to 40%. This molecule also yielded a Ki at 3 h on P-gp [9] (probe [3H]-vinblastine, Ki, inhibition of [3H]-vinblastine binding to P-gp (mean), 3 h, 21C) of 0.4 ± 0.14 µM.

On to `CC(=O)O[C@@]12CO[C@@H]1C[C@H](O)[C@@]1(C)C(=O)[C@H](O)C3=C(C)[C@@H](OC(=O)[C@H](O)[C@@H](NC(=O)OC(C)(C)C)c4ccccc4)C[C@@](O)([C@@H](OC(=O)c4ccccc4)[C@H]21)C3(C)C` [taxotere], for which, in the series on MES-Dx5 cells [2], the EC50 stood at 0.093 µM and the “Resistance factor (RF) of MES-Dx5 relative to MES-SA cells” value is on record as 19 fold. Further, the EC50 in the series with MES-SA cells [11] stood at 0.005 µM.

Consider `CC[C@]1(O)C[C@@H]2CN(CCc3c([nH]c4ccccc34)[C@@](C(=O)OC)(c3cc4c(cc3OC)N(C)[C@H]3[C@@](O)(C(=O)OC)[C@H](OC(C)=O)[C@]5(CC)C=CCN6CC[C@]43[C@@H]65)C2)C1` [vinblastine], for which the EC50 in the series on MES-Dx5 cells [2] was 0.03 µM; with MES-SA cells [11] it was 0.003 µM.
